Measured values reported in patent publication US9321772B2, “Substituted pyrazolo[3,4-D]pyrimidines and uses thereof” (The Regents of the University of California, priority 2011, dated 2016).
Entries after “also recorded” stand apart in the source; their conditions may differ.

Legend:
ptc>dRet^MEN2B flies = assay: Drosophila ptc>dRetMEN2B viability assay; assay type: in vivo; settings: for notum, scutellum and cuticle defects of ptc>dRetMEN2B adults: drug fed flies; for effect of reducing erk gene dosage on drug efficacy in viability assay: ptc>dRetMEN2B
Source text: FIG. 1A. Suppression of Ret^MEN2B-induced developmental block and whole animal toxicity were scored based on number of embryos (n) that survived as pupae (x) and adults (y). Drugs were mixed into food and fed to flies starting at larval stages.
FIG. 1B. Percent viability of control or drug treated flies determined for pupae (x/n) and adults (y/n).
Described herein is a Drosophila MEN2B model in which an intracellular mutation in the Drosophila Ret ortholog (dRet) was targeted to the eye (Read, R. D. et al., Genetics, 2005. 171(3): p. 1057-81). […] The screen is conducted in developing drosophila embryos. Under normal circumstances, drosophila embryos pass through four developmental steps: embryo→larvae→pupae→adult. […] We calibrated the ptc>dRetMEN2B assay to permit 50% survival to pupariation and 0% survival to adulthood. Mutated forms of RET are believed to be causative in human thyroid cancers including multiple endocrine neoplasia types 2A and 2B (MEN2A and MEN2B). The screen identifies small molecules that (a) suppress the toxicity induced by oncogenic RET and (b) allow flies to develop to functional adults. […] 64(19): p. 7099-109; Sun, L. et al., J Med Chem, 2003. 46(7): p.

[1] = tested on: ptc>dRet^MEN2B wing cells; assay: Wing-based assay for transformation and cell migration (ptc>dRetMEN2B); assay type: in vivo, Drosophila; settings: oral administration
Source text: FIG. 4E. Quantification of ptc>dRet^MEN2B phenotypes. Invasion was established by scoring for single/groups of GFP-labeled cells that relocated away from the ptc boundary (FIG. 4C, asterisks). Basal migration was scored as indentation of the apical surface (see FIG. 2B, arrows). Proliferation was scored as significant widening of the ptc boundary. The number of wings analyzed under each condition is indicated in brackets.
We previously developed a wing-based assay for transformation and cell migration that we utilized to explore Ras- and Src-based tumorigenesis (Vidal, M., D. E. Larson, and R. L. Cagan, Dev Cell, 2006. 10(1): p. 33-44). In this assay, the ptc-GAL4 driver directed oncogene expression in a stripe along the anterior-posterior axis; oncogene-based transformation led to over-proliferation, epithelial-to-mesenchymal transition (EMT), and cell migration away from the ptc domain.

B-Raf = B-Raf (Homo sapiens, UniProt P15056); assay: In vitro kinase assay, B-Raf; assay type: biochemical; settings: in vitro kinase profile, 1 μM
Procedure: (§1) Using in vitro kinase assays we tested AD57, AD36, and AD58 at 1 μM for activity against approximately one-half of the human kinome (FIG. 1E): 165 Ser/Thr kinases, 91 Tyr kinases, and 10 PI kinases were assayed, totaling 266 kinases (244 distinct kinases plus 22 mutant isoforms; see FIG. 6A-6C, FIG. 7A-7F, and FIG. 8 for measured inhibition values).
(§2) At least three major pathways are required for dRet^MEN2B-mediated transformation: Ras, Src, and glucose metabolism/PI3K (FIG. 3A; Ref (Read, R. D. et al., Genetics, 2005. 171(3): p. 1057-81)). We utilized in vitro kinase assays to assess compound activity against relevant kinases from each of these pathways, specifically Ret, B-Raf, Src, Tor, and S6K (FIG. 3B).

Src = Src (Homo sapiens, UniProt P12931); assay: In vitro kinase assay, Src; assay type: biochemical; settings: in vitro kinase profile, 1 μM
Procedure: as §1, §2

S6K = S6K (Homo sapiens, UniProt P23443); assay: In vitro kinase assay, S6K; assay type: biochemical; settings: in vitro kinase profile, 1 μM
Procedure: as §1, §2

mTor = mTor (Homo sapiens, UniProt P42345); assay: In vitro kinase assay, mTor; assay type: biochemical; settings: in vitro kinase profile, 1 μM
Procedure: as §1, §2

[2] = tested on: TT (MEN2A) thyroid cancer cells; assay: TT cell viability (MTT assay); assay type: cell-based, human
Procedure: (§3) FIG. 18A-18D. […] FIG. 18A. MEN2B (MZ) thyroid cancer cells were treated with the indicated concentrations of each inhibitor (7 days) and cell viability was quantitated by MTT assay. FIG. 18B. MEN2A (TT) thyroid cancer cells were treated with the indicated concentrations of each inhibitor (7 days) and cell viability was quantitated by MTT assay. FIG. 18C. […] Change in tumor volume was calculated per mouse. Values shown are the median percent change per group. 20 and 10 animals for vehicle and drug treated mice, respectively, were analyzed. FIG. 18D. Body weight measurements of AD80, Vandetanib (VD) and vehicle treated nude mice transplanted with TT cells. Values shown are the median of 20 and 10 animals for vehicle and drug treated mice, respectively.

[3] = tested on: TT cell tumors in athymic nu/nu mice; assay: MEN2 (TT) mouse xenograft model; assay type: in vivo; settings: for reduction of tumor progression relative to vehicle: nude mice transplanted with TT cells, oral gavage, median per group; for toxicity as assessed by animal body weights / tumor growth, in words: nude mice with TT tumors, PO administration
Procedure: FIG. 11. […] TT thyroid cancer cells were implanted into athymic nu/nu mice subcutaneously into the right flank under the conditions listed. Upon establishment of tumors, drugs were administered by oral gavage (5 days ON/2 days OFF schedule). Tumors were measured using digital calipers. […] VD=vandetanib.
as §3
TT-based tumors were grown for 46 days in athymic nu/nu male mice prior to drug administration.

[4] = Pharmacokinetic profile in murine models; assay type: in vivo, mouse
Source text: In addition to the experiments with AD57 and AD80 in drosophila, we have examined these molecules in murine models of cancer.

[5] = tested on: ER4 cells (ER4 subline of HCC827 cells resistant to erlotinib); assay: Erlotinib sensitivity of ER4 cells with AXL inhibitor treatment; assay type: cell-based; settings: 0.1, 1, 10 micromolar in combination with erlotinib
Source text: FIG. 21A-21C. Overcoming acquired resistance through AXL inhibitor treatment. Erlotinib plus AD57, AD80, or AD81 in ER4 cells (ER4 subline of HCC827 cells that are resistant to erlotinib treatment). Legend: diamond symbols are DMSO control, square symbols are 0.1 micromolar of compound, triangle symbols are 1 micromolar of compound, x symbol are 10 micromolar of compound, all in combination with erlotinib.

[6] = tested on: ER4 cells (ER4 subline of HCC827 cells resistant to erlotinib); assay: Apoptosis in ER4 cells (PARP cleavage, BIM induction); assay type: cell-based; settings: 1 micromolar combined with erlotinib, 24 hour exposure
Procedure: FIG. 22. Induction of apoptosis by combined EGFR and AXL inhibition. ER4 cells (ER4 subline of HCC827 cells that are resistant to erlotinib treatment) plated at 0.5×10^6 cells/condition. 24-hour drug exposure. Apoptosis measured by induction of PARP cleavage and BIM induction. E is erlotinib, AD57 at 1 micromolar, AD80 at 1 micromolar, AD81 at 10 micromolar.

[7] = oral administration, drug mixed into food

Src, sequence (P12931 whole entry): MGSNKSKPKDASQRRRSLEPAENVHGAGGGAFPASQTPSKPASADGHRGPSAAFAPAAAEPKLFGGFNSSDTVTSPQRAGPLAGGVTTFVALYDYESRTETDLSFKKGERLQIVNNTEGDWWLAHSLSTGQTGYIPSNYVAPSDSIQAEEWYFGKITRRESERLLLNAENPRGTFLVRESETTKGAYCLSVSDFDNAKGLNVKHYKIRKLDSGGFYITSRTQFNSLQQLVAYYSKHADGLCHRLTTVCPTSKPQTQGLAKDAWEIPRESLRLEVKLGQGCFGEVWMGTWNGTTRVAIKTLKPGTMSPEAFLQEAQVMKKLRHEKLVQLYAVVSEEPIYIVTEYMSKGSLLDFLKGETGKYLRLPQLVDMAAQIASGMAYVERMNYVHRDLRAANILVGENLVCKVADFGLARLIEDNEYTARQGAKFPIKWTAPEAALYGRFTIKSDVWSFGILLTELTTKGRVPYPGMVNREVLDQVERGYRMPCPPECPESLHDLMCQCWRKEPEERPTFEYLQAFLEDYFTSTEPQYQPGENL
S6K, sequence (P23443 whole entry): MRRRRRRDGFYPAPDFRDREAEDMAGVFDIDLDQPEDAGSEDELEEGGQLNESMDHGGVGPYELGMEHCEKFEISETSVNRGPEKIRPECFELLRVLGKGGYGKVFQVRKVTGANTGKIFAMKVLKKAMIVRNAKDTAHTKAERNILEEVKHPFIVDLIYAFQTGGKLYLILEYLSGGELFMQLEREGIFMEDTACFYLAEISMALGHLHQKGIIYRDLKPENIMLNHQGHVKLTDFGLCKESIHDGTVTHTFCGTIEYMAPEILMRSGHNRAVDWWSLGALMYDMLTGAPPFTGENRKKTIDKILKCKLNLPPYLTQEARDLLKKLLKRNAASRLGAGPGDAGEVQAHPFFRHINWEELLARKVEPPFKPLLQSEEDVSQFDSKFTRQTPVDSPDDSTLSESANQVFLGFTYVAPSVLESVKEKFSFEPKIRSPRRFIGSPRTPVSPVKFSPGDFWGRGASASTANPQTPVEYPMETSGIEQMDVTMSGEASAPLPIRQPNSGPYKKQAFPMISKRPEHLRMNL
B-Raf, sequence (P15056 whole entry, canonical isoform): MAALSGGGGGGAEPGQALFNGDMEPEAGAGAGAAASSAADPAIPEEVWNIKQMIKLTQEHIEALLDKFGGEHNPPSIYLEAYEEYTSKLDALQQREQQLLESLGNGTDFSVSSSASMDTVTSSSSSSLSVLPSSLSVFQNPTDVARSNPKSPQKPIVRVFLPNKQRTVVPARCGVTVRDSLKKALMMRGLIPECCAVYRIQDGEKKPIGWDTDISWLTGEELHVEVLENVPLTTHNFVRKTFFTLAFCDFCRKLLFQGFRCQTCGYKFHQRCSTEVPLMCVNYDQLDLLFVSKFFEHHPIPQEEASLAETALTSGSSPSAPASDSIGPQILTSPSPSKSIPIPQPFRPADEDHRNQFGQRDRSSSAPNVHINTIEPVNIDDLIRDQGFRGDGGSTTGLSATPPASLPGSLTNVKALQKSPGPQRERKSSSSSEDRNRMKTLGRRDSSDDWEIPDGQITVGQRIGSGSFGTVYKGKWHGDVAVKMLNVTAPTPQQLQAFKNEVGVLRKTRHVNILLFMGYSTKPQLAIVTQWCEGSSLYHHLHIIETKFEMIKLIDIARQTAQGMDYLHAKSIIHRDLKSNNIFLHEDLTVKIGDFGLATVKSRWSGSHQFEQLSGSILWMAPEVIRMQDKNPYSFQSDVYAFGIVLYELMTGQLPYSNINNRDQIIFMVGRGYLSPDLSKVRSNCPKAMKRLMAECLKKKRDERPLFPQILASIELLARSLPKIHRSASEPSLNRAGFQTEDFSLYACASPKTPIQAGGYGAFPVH

Row | Compound | notum, scutellum and cuticle defects of ptc>dRetMEN2B adults (ptc>dRet^MEN2B flies) | rescue of ptc>dRetMEN2B viability (pupae, adults), in words (ptc>dRet^MEN2B flies; [7]) | effect of reducing erk gene dosage on drug efficacy in viability assay (ptc>dRet^MEN2B flies) | basal phospho-Src in wing epithelium [1] | suppression of dRetMEN2B-induced proliferation, EMT, invasion/basal migration [1] | B-Raf (Raf) inhibition, in words (B-Raf) | Src inhibition, in words (Src) | S6K inhibition, in words (S6K) | mTor inhibition, in words (mTor) | inhibition of TT cell viability / proliferation, in words [2] | reduction of tumor progression relative to vehicle [3] [fold] | toxicity as assessed by animal body weights [3] | tumor growth, in words [3] | pharmacokinetic profile, in words [4] | sensitivity to erlotinib [5] | apoptosis (PARP cleavage, BIM induction) [6] | animals rescued / developing to adulthood (ptc>dRet^MEN2B flies; [7]) | effect of reducing dTor on drug efficacy/toxicity (ptc>dRet^MEN2B flies; ptc>dRetMEN2B dTor-/+) | IC50, fold lower than Vandetanib ([2]; TT cell line, dose-response)
1 | CC(C)n1nc(-c2ccc(NC(=O)Nc3cc(C(F)(F)F)ccc3F)cc2)c2c(N)ncnc21 [AD80] | phenotypically normal | improved rescue relative to AD57 | did not alter efficacy | potently blocked | significantly improved suppression; also recorded: potently blocked | inhibited | inhibited | inhibited | not and greatly reduced mTor activity and lack significant inhibitory activity | inhibited proliferation | 3.1 | reduced body weight modulation relative to Vandetanib | enhanced tumor growth inhibition | pharmacokinetic profiles in a range that is similar to several clinical agents | confer dose-dependent sensitivity to erlotinib | enhances apoptosis | – | – | –
2 | CC(C)n1nc(-c2ccc(NC(=O)Nc3cccc(C(F)(F)F)c3)cc2)c2c(N)ncnc21 [AD57] | strongly suppressed; also recorded: complete suppression of notum and scutellum defects; also recorded: some cuticle defects | best single-agent hit; also recorded: potently suppressed | considerably enhanced the efficacy | suppressed phospho-Src in basal regions of the wing epithelium | potent in vivo suppression; also recorded: strongly suppressed | potent inhibitor | potent inhibitor; also recorded: strongly inhibited | potent inhibitor | potent inhibitor | most potent inhibition | ~3 | no detectable toxicity | displays antitumor activity; also recorded: significant suppression of tumor growth | pharmacokinetic profiles in a range that is similar to several clinical agents | confer dose-dependent sensitivity to erlotinib | enhances apoptosis | approximately 25% | dominantly suppressed the efficacy | more than 150 fold
